Measured values: US8381774B2, “Methods for loading a drug eluting medical device” (Medtronic Vascular, Inc., priority 2009, dated 2013)

Test: ability of solvents and dispersion mediums to dissolve the therapeutic substance (sirolimus)
Assay type: physicochemical
Description: Solution 524 is a homogeneous mixture in which therapeutic substance 112 dissolves within a solvent or a solvent mixture. In one embodiment, solution 524 includes a high-capacity solvent 528 which is an organic solvent that has a high capacity to dissolve therapeutic substance 112. High capacity as utilized herein is defined as an ability to dissolve therapeutic substance 112 at concentrations greater than 500 mg of substance per milliliter of solvent. Examples of high capacity drug dissolving solvents for sirolimus and similar substances include but are not limited to tetrahydrofuran (THF), di-chloromethane (DCM), chloroform, and di-methyl-sulfoxide (DMSO). In addition to the high-capacity solvent, solution 524 may include an excipient 526 in order to assist in drug elution. In one embodiment, excipient 526 may be a surfactant such as but not limited to sorbitan fatty acid esters such as sorbitan monooleate and sorbitan monolaurate, polysorbates such as polysorbate 20, polysorbate 60, and polysorbate 80, cyclodextrins such as 2-hydroxypropyl-beta-cyclodextrin and 2,6-di-O-methyl-beta-cyclodextrin, sodium dodecyl sulfate, octyl glucoside, and low molecular weight poly(ethylene glycol)s. In another embodiment, excipient 526 may be a hydrophilic agent such as but not limited to salts such as sodium chloride and other materials such as urea, citric acid, and ascorbic acid. […]

SMILES: CO[C@H]1C[C@@H]2CC[C@@H](C)[C@@](O)(O2)C(=O)C(=O)N2CCCC[C@H]2C(=O)O[C@H]([C@H](C)C[C@@H]2CC[C@@H](O)[C@H](OC)C2)CC(=O)[C@H](C)/C=C(\C)[C@@H](O)[C@@H](OC)C(=O)[C@H](C)C[C@H](C)/C=C/C=C/C=C/1C [sirolimus]
- solubility in hexane (hexane (precipitator solvent)): insoluble
- solubility in water (water): insoluble
